The first assay deals with human factor Xa (Homo sapiens, UniProt P00742). Kind of assay: Factor Xa assay (chromogenic, substrate S-2765).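 Also: purified enzyme preincubated with inhibitor for 10 min before substrate addition, final reaction volume 100 µl.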 In kind it is biochemical.
Sequence of human factor Xa (P00742 235-488 limits assumed): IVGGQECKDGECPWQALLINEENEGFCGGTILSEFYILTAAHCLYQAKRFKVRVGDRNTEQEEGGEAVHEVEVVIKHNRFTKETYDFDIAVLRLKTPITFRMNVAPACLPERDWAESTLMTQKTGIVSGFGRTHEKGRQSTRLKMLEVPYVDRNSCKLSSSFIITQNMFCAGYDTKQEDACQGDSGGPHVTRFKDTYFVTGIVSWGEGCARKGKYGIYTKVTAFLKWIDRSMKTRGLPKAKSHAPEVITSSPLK
Sequence of human factor Xa (P00742 41-179 partner limits assumed): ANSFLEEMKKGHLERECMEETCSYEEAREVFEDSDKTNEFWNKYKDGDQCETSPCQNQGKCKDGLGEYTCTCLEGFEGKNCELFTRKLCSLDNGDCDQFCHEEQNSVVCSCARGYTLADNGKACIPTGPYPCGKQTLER
Details: not given
Compound `CC(C)N1CCC(NC(=O)c2cc3cccc(Cl)c3n2Cc2cc(-c3ccc(Cl)s3)on2)CC1` [Example 20] showed a Ki of 0.007 µM.

The same assay, now with this note: inhibition constant for factor Xa; purified enzyme 0.5 nM, substrate S-2765 140 μM, 25° C., pH 7.8; Ki=IC50/{1+(substrate concentration/Km)}; read-out: Ki(FXa).
As for `CC(C)N1CCC(NC(=O)c2cc3cc(S(C)(=O)=O)ccc3n2Cc2cc(-c3ccc(Cl)s3)on2)CC1` [Example 2], the inhibitory constant (Ki) was 0.02 µM.

`CC(C)N1CCC(NC(=O)c2cc3cc([N+](=O)[O-])ccc3n2Cc2cc(-c3ccc(Cl)s3)on2)CC1` [Example 3]: the Ki stood at 0.001 µM.

With `CC(C)N1CCC(NC(=O)c2cc3cc(OCc4ccccc4)ccc3n2Cc2cc(-c3ccc(Cl)s3)on2)CC1` [Example 4], the Ki was determined as 0.834 µM.

Regarding `CC(C)N1CCC(NC(=O)c2cc3cc(Cl)ccc3n2Cc2cc(-c3ccc(Cl)s3)on2)CC1` [Example 5], the Ki was 0.005 µM.

Consider `Cc1ccc2c(c1)cc(C(=O)NC1CCN(C(C)C)CC1)n2Cc1cc(-c2ccc(Cl)s2)on1` [Example 8], for which the Ki was found to be 0.009 µM.

For the compound `CC(C)N1CCC(NC(=O)c2cc3cccc([N+](=O)[O-])c3n2Cc2cc(-c3ccc(Cl)s3)on2)CC1` [Example 11], the Ki is 0.0001 µM.

Regarding `CC(C)N1CCC(NC(=O)c2c(-c3ccccc3)c3ccccc3n2Cc2cc(-c3ccc(Cl)s3)on2)CC1` [Example 16], the Ki was found to be 0.055 µM.

Consider `CC(C)N1CCC(NC(=O)c2cc3ccc(Cl)cc3n2Cc2cc(-c3ccc(Cl)s3)on2)CC1` [Example 21], for which the Ki is 0.007 µM.

`CC(C)N1CCC(NC(=O)c2cc3cc(F)ccc3n2Cc2cc(-c3ccc(Cl)s3)on2)CC1` [Example 23]: the Ki was found to be 0.003 µM.

As for `O=C(NC1CCN(c2ccncc2)CC1)c1cc2ccccc2n1Cc1cc(-c2ccc(Cl)s2)on1` [Example 28, 1-[5-(5-Chloro-thiophen-2-yl)-isoxazol-3-ylmethyl]-1H-indole-2-carboxylic acid (3,4,5,6-tetrahydro-2H-[1,4′]bipyridinyl-4-yl)-amide], the Ki came to 0.014 µM.

For `O=C(c1cc2ccccc2n1Cc1cc(-c2ccc(Cl)s2)on1)N1CCC(Nc2ccncc2)CC1` [Example 31, {1-[5-(5-Chloro-thiophen-2-yl)-isoxazol-3-ylmethyl]-1H-indol-2-yl}-[4-(pyridin-4-ylamino)-piperidin-1-yl]-methanone], the Ki amounted to 0.018 µM.

Consider `CCN1CCC(NC(=O)c2cc3ccccc3n2Cc2cc(-c3ccc(Cl)s3)on2)CC1` [Example 36, 1-[5-(5-Chloro-thiophen-2-yl)-isoxazol-3-ylmethyl]-1H-indole-2-carboxylic acid (1-ethyl-piperidin-4-yl)-amide], for which the Ki came out at 0.018 µM.

As to `O=C(NCC1CCN(c2ccncc2)CC1)c1cc2ccccc2n1Cc1cc(-c2ccc(Cl)s2)on1` [Example 47, 1-[5-(5-Chloro-thiophen-2-yl)-isoxazol-3-ylmethyl]-1H-indole-2-carboxylic acid (3,4,5,6-tetrahydro-2H-[1,4′]bipyridinyl-4-ylmethyl)-amide], the Ki was determined as 0.064 µM.

For `O=C(NC1CCN(C2CC2)CC1)c1cc2ccccc2n1Cc1cc(-c2ccc(Cl)s2)on1` [Example 48, 1-[5-(5-Chloro-thiophen-2-yl)-isoxazol-3-ylmethyl]-1H-indole-2-carboxylic acid (1-cyclopropyl-piperidin-4-yl)-amide], the Ki amounted to 0.027 µM.

The same assay, now with this note: read-out: Ki(FXa).
Consider `COc1ccc2c(c1)cc(C(=O)NC1CCN(C(C)C)CC1)n2Cc1cc(-c2ccc(Cl)s2)on1` [Example 6], for which the Ki was found to be 0.013 µM.

On to `COc1ccc2cc(C(=O)NC3CCN(C(C)C)CC3)n(Cc3cc(-c4ccc(Cl)s4)on3)c2c1` [Example 7], for which the inhibition constant Ki was determined as 0.004 µM.

As for `COc1cc(OC)c2cc(C(=O)NC3CCN(C(C)C)CC3)n(Cc3cc(-c4ccc(Cl)s4)on3)c2c1` [Example 9], the Ki is 0.003 µM.

In the case of `COc1cc2cc(C(=O)NC3CCN(C(C)C)CC3)n(Cc3cc(-c4ccc(Cl)s4)on3)c2cc1OC` [Example 10], the Ki was found to be 0.182 µM.

Regarding `CC(C)N1CCC(NC(=O)c2cc3cc(OC(F)(F)F)ccc3n2Cc2cc(-c3ccc(Cl)s3)on2)CC1` [Example 12], the Ki turned out to be 0.114 µM.

On to `CC(C)N1CCC(NC(=O)c2cc3cccc(NC(=O)C(C)(C)C)c3n2Cc2cc(-c3ccc(Cl)s3)on2)CC1` [Example 14], for which the Ki came out at 1.72 µM.

Turning to `COc1cccc2c1cc(C(=O)NC1CCN(C(C)C)CC1)n2Cc1cc(-c2ccc(Cl)s2)on1` [Example 15], the Ki was 0.0035 µM.

In the case of `COc1cc2cc(C(=O)NC3CCN(C(C)C)CC3)n(Cc3cc(-c4ccc(Cl)s4)on3)c2cc1O` [Example 17], the Ki stood at 1.97 µM.

As to `CC(C)N1CCC(NC(=O)c2cc3c(F)cc(F)cc3n2Cc2cc(-c3ccc(Cl)s3)on2)CC1` [Example 18], the inhibition constant (Ki) came to 0.016 µM.

Take `CC(C)N1CCC(NC(=O)c2cc3c(OCc4ccccc4)cccc3n2Cc2cc(-c3ccc(Cl)s3)on2)CC1` [Example 19]: the Ki is 0.05 µM.

As to `CCc1ccc2c(c1)cc(C(=O)NC1CCN(C(C)C)CC1)n2Cc1cc(-c2ccc(Cl)s2)on1` [Example 22], the Ki is 0.217 µM.

In the case of `CC(C)N1CCC(NC(=O)c2c(-c3ccccc3)c3cc([N+](=O)[O-])ccc3n2Cc2cc(-c3ccc(Cl)s3)on2)CC1` [Example 24], the Ki was 0.132 µM.

For `CC(C)N1CCC(NC(=O)c2c(-c3ccccc3)c3cc(Cl)ccc3n2Cc2cc(-c3ccc(Cl)s3)on2)CC1` [Example 25], the Ki was 0.336 µM.

With `CC(C)N1CCC(NC(=O)c2cc3cc(F)cc(F)c3n2Cc2cc(-c3ccc(Cl)s3)on2)CC1` [Example 26], the Ki stood at 0.0001 µM.

`CC(C)N1CCC(NC(=O)c2cc3cc([N+](=O)[O-])cc([N+](=O)[O-])c3n2Cc2cc(-c3ccc(Cl)s3)on2)CC1` [Example 27]: the Ki was 0.0002 µM.

For the compound `Cc1cccc2cc(C(=O)NC3CCN(c4ccncc4)CC3)n(Cc3cc(-c4ccc(Cl)s4)on3)c12` [Example 29, 1-[5-(5-Chloro-thiophen-2-yl)-isoxazol-3-ylmethyl]-7-methyl-1H-indole-2-carboxylic acid (3,4,5,6-tetrahydro-2H-[1,4′]bipyridinyl-4-yl)-amide], the Ki was determined as 0.019 µM.

As for `O=C(NC1CCN(c2ccncc2)CC1)c1cc2cc([N+](=O)[O-])ccc2n1Cc1cc(-c2ccc(Cl)s2)on1` [Example 30, 1-[5-(5-Chloro-thiophen-2-yl)-isoxazol-3-ylmethyl]-5-nitro-1H-indole-2-carboxylic acid (3,4,5,6-tetrahydro-2H-[1,4′]bipyridinyl-4-yl)-amide], the Ki is 0.025 µM.

With `O=C(c1cc2cc([N+](=O)[O-])ccc2n1Cc1cc(-c2ccc(Cl)s2)on1)N1CCC(Nc2ccncc2)CC1` [Example 32, {1-[5-(5-Chloro-thiophen-2-yl)-isoxazol-3-ylmethyl]-5-nitro-1H-indol-2-yl}-[4-(pyridin-4-ylamino)-piperidin-1-yl]-methanone], the Ki worked out at 0.037 µM.

Regarding `Cc1cccc2cc(C(=O)N3CCC(Nc4ccncc4)CC3)n(Cc3cc(-c4ccc(Cl)s4)on3)c12` [Example 33, {1-[5-(5-Chloro-thiophen-2-yl)-isoxazol-3-ylmethyl]-7-methyl-1H-indol-2-yl}-[4-(pyridin-4-ylamino)-piperidin-1-yl]-methanone], the inhibitory constant (Ki) worked out at 0.011 µM.

`Cc1cccc2cc(C(=O)N3CCC(NC(C)C)CC3)n(Cc3cc(-c4ccc(Cl)s4)on3)c12` [Example 35, {1-[5-(5-Chloro-thiophen-2-yl)-isoxazol-3-ylmethyl]-7-methyl-1H-indol-2-yl}-(4-isopropylamino-piperidin-1-yl)-methanone]: the Ki was determined as 0.502 µM.

In the case of `CCN1CCC(NC(=O)c2cc3cccc(C)c3n2Cc2cc(-c3ccc(Cl)s3)on2)CC1` [Example 37, 1-[5-(5-Chloro-thiophen-2-yl)-isoxazol-3-ylmethyl]-7-methyl-1H-indole-2-carboxylic acid (1-ethyl-piperidin-4-yl)-amide], the Ki was 0.003 µM.

As to `O=C(c1cc2ccccc2n1Cc1cc(-c2ccc(Cl)s2)on1)N1CCC(N2CCCC2)CC1` [Example 38, {1-[5-(5-Chloro-thiophen-2-yl)-isoxazol-3-ylmethyl]-1H-indol-2-yl}-(4-pyrrolidin-1-yl-piperidin-1-yl)-methanone], the Ki was determined as 0.701 µM.

For `CN1CCC(N2CCN(C(=O)c3cc4ccccc4n3Cc3cc(-c4ccc(Cl)s4)on3)CC2)CC1` [Example 39, {1-[5-(5-Chloro-thiophen-2-yl)-isoxazol-3-ylmethyl]-1H-indol-2-yl}-[4-(1-methyl-piperidin-4-yl)-piperazin-1-yl]-methanone], the Ki was 2 µM.

Take `O=C(NCC1CC(c2ccncc2)=NO1)c1cc2ccccc2n1Cc1cc(-c2ccc(Cl)s2)on1` (stereo not drawn) [Example 41, 1-[5-(5-Chloro-thiophen-2-yl)-isoxazol-3-ylmethyl]-1H-indole-2-carboxylic acid (3-pyridin-4-yl-4,5-dihydro-isoxazol-5-ylmethyl)-amide]: the Ki was 1.03 µM.

In the case of `O=C(c1cc2ccccc2n1Cc1cc(-c2ccc(Cl)s2)on1)N1CCN(Cc2ccncc2)CC1` [Example 43, {1-[5-(5-Chloro-thiophen-2-yl)-isoxazol-3-ylmethyl]-1H-indol-2-yl}-(4-pyridin-4-ylmethyl-piperazin-1-yl)-methanone], the Ki turned out to be 0.504 µM.

As for `COc1cccc(Cn2c(C(=O)NCC3CCN(c4ccncc4)CC3)cc3ccccc32)c1` [Example 55], the Ki is 1.7 µM.

Take `COc1cccc(Cn2c(C(=O)NC3CCN(C(C)C)CC3)cc3c(OC)cccc32)c1` [Example 66, 4-Methoxy-1-(3-methoxy-benzyl)-1H-indole-2-carboxylic acid (1-isopropyl-piperidin-4-yl)-amide]: the inhibitory constant (Ki) worked out at 0.043 µM.

Take `COc1cccc(Cn2c(C(=O)NC3CCN(C(C)C)CC3)cc3cc(Cl)ccc32)c1` [Example 67, 5-Chloro-1-(3-methoxy-benzyl)-1H-indole-2-carboxylic acid (1-isopropyl-piperidin-4-yl)-amide]: the Ki is 0.187 µM.

With `COc1cccc(Cn2c(C(=O)NC3CCN(C(C)C)CC3)cc3cc(C)ccc32)c1` [Example 69, 1-(3-Methoxy-benzyl)-5-methyl-1H-indole-2-carboxylic acid (1-isopropyl-piperidin-4-yl)-amide], the Ki is 0.159 µM.

Consider `COc1cccc(Cn2c(C(=O)NC3CCN(C(C)C)CC3)cc3cc(OCc4ccccc4)ccc32)c1` [Example 70], for which the Ki worked out at 0.114 µM.

The values are drawn from US20090069565A1, “NEW INDOLE DERIVATIVES AS FACTOR XA INHIBITORS” (priority 2001, published 2009).
